{"source": "patent US20230201308A1", "about": "“TREATMENT OF CORONAVIRUS INFECTION WITH […]” (Eiger Biopharmaceuticals, Inc., priority 2020, published 2023)", "origin": "cited, not measured here", "test_system": "SARS-CoV-2", "details": "BLAZE trial; placebo group 15%; cited from earlier work", "data": [{"substance": "bamlanivimab", "values": [{"measurement": "hospitalization in the treatment group", "value": "placebo group to 4% in the treatment group. Despite the more potent antiviral effect"}]}]}
